Results on 3 molecules are retold here after patent US20120282237A1, “USE OF PROTEIN ARGININE METHYLTRANSFERASES IN REGULATING HEMATOPOIETIC DIFFERENTIATION” (priority 2011, published 2012).

In assay [1] the test system is human CD34+ hematopoietic cells. Put plainly: TPO-induced megakaryocyte differentiation of CD34+ cells, CD41 expression by flow cytometry. The class given is cell-based. The settings on record: TPO alone (100 ng/ml), day 15. Here is the method: To analyze the megakaryocyte surface marker CD41, cells were first incubated in 2% bovine serum albumin for 30 min and then with fluorescein isothiocyanate (FITC)-conjugated anti-Plt-1 (CD41) antibodies (1:80, Beckman Coulter) in 1% bovine serum albumin for 30 min; cells were then analyzed by flow cytometry.
To investigate the effect of PRMT1 in more physiologically relevant conditions, TAT-HA-PRMT1 was introduced into human CD34^+ hematopoietic cells. CD34^+ cells were derived from human umbilical cord blood with consent from the mother and were collected and processed according to governmental regulations (“Guidelines for Collection and Use of Human Specimens for Research.” Department of Health, Taiwan). Isolation and expansion of CD34^+ cells were performed as described previously (Yao, et al., Stem Cells Dev. 2006, 15, 70-78).
Briefly, the CD34^+ cells were purified with CD34 microbeads by a Miltenyi VarioMACS device (Miltenyi Biotec) and cultivated in serum-free Iscove's modified Dulbecco's medium (IMDM) (HyClone) supplemented with serum substitutes (1.5 g/liter bovine serum albumin, 4.4 μg/ml insulin, 60 μg/ml transferrin, and 25.9 μM 2-mercaptoethanol) and a cytokine mixture (8.5 ng/ml TPO, 4.1 ng/ml interleukin-3, 15 ng/ml stem cell factor, 6.7 ng/ml flk2/flt3 ligand, 0.8 ng/ml interleukin-6, 3.2 ng/ml granulocyte colony-stimulating factor, and 1.3 ng/ml granulocyte-macrophage colony-stimulating factor) for 6 to 7 days. To induce megakaryocyte differentiation, the expanded CD34^+ cells were cultivated (5×10^4cells/ml) in media described above without cytokine mixture for 6 h. TPO (100 ng/ml) was added to induce differentiation. Expression of CD41 was analyzed by flow cytometry 15 days after TPO stimulation.
Recombinant TAT-fused HA-PRMT1 and HA-GFP (as a control) proteins were expressed in Escherichia coli and purified using Ni^+-nitrilotriacetic acid-agarose (Qiagen). Endotoxins were removed using Detoxi-Gel™ endotoxin removing gel (Pierce) according to the manufacturer's instructions. For differentiation study, recombinant TAT-fused proteins were added to CD34^+ cells 6 h before TPO stimulation and again at the time of TPO addition.
Both the recombinant TAT-conjugated HA-PRMT1 protein and the HA-GFP control protein were detected in cells by Western blot analysis (FIG. 6A). Erk was used as a loading control. Thrombopoietin (TPO) induces CD34^+ hematopoietic cells to undergo differentiation towards the megakaryocyte lineage as detected by the expression of the specific surface marker CD41. TPO-induced CD41 expression ranged from 45% to 76% in four different donors at day 15 after TPO treatment (Table 1).

Assay [2] relates to K562 cells. As to the kind of experiment: Ara-C-induced erythroid differentiation of K562 cells, benzidine staining. The class given is cell-based, human. On the procedure:
Various K562 cell clones were treated with Ara-C (A, 1 μM) and sodium butyrate (B, 2 mM) for 96 hr, and measured by qualifying hemoglobin-positive cells with benzidine stain. […] All experiments were performed at least three times and data are presented as means±S.E.; *** p<0.005 as compared with K562 parental cells.
The methyltransferase inhibitor, adenosine dialdehyde (AdOx), was added 8 hours before Ara-C treatment. Inhibition of methylation suppressed Ara-C-induced erythroid differentiation (A). The enzymatically impaired mutant PRMT1G80R, when transiently expressed in K562 cells (B), lost the effect on both megakaryocyte (C) and erythroid (D) differentiations. […] All experiments were performed at least three times and data are presented as means±S.E.; *** p<0.005 as compared with K562 parental cells.
In order to test whether activity of PRMT1 participates in regulation of differentiation, adenosine dialdehyde (AdOx), an inhibitor of S-adenosylhomocysteine hydrolase, which indirectly suppresses methylation due to accumulation of products, was used to treat K562 cells. […] A single amino acid mutation (G80R) in the conserved SAM binding domain of PRMT1 with impaired methyltransferase activity (Kwak et al., Mol. Cell 2003, 11, 1055-1066), HA-PRMT1G80R, was transiently expressed in K562 cells (FIG. 5B).

The subject of assay [3] is K562 cells. Put plainly: PMA-induced megakaryocyte differentiation of K562 cells (modified Wright-Giemsa staining, adherent cells). The assay is classed as cell-based, human. The settings on record: PMA 40 nM. Here is the method: For megakaryocyte differentiation, K562 cells were treated with 40 nM of PMA, (Sigma-Aldrich). Adherent cells with pseudopodia were examined by phase contrast light microscopy. For quantification, cells in suspension or loosely attached were first removed from the culture dish carefully, and adherent cells were then removed by trypsinization, collected, and counted. Cytological changes, including a multilobed nucleus and vacuolated cytoplasm, were examined by modified Wright-Giemsa staining. Three to four hundred cells were examined in each assay.
Megakaryopoiesis can be characterized by cytological changes and expression of lineage-specific markers such as CD41. […] In addition, we observed an increased number of adherent cells, about 30% at 96 hour (FIG. 2B, E3-6).

For “TPO: Thrombopoietin, inducer of megakaryocyte differentiation of CD34+ cells (100 ng/ml)”, the CD41 expression in assay [1] (donor 1) was determined as 62.3%; in assay [1] (donor 2), 44.7%; in assay [1] (donor 3), 68.2%; in assay [1] (donor 4), 75.7%.
For `Nc1ncnc2c1ncn2C(C=O)OC(C=O)CO` (centres unmarked) [AdOx, adenosine dialdehyde], the Ara-C-induced erythrocytic differentiation result with K562 cells [2] (AdOx added 8 hours before Ara-C treatment) is “dramatically suppressed”. The erythrocytic differentiation entry with K562 cells [2] (AdOx alone, no Ara-C) is “did not influence differentiation”.
Turning to `CCCCCCCCCCCCCC(=O)O[C@@H]1[C@@H](C)[C@@]2(O)[C@@H](C=C(CO)C[C@]3(O)C(=O)C(C)=C[C@@H]23)[C@@H]2C(C)(C)[C@]12OC(C)=O` [PMA, Phobol 12-myristate 13-acetate], the “cells with characteristics of megakaryocytes” value with K562 cells [3] (E3-6 and parental K562 cells, 96 hours) is listed as “About 50%”. In addition, the adherent cells result with K562 cells [3] (E3-6 cells, 96 hour) was “about 30%”.
